One data set relates to HL-60. As to the kind of experiment: HL-60 differentiation potency. Type of data set: cell-based. Conditions: Homo sapiens.
A short description of another data set: in vitro. Conditions: human.

Usually EC50 stands for the midpoint of the concentration-response curve. Read a high EC50 as weaker potency. The term IC50 denotes the concentration needed to halve the response being measured. High values mean weaker potency in that assay, low ones greater potency in that assay. In the data set on HL-60, `C[C@H]1[C@@H](OCc2ccc(C(=O)N3C[C@@H](F)C[C@H]3C(=O)O)cc2)O[C@@H]2O[C@@]3(C)CC[C@H]4[C@H](C)CC[C@@H]1[C@@]24OO3` [Compound 276, (2S,4S)-4-fluoro-1-(4-((((3R,5aS,6R,8aS, 9R,10S,12R, 12aR)-3,6,9-trimethyldeca-hydro-12H-3,12-epoxy[1,2]dioxepino[4,3-i]isochromen-10-yl)oxy)methyl)benzoyl) pyrrolidine-2-carboxylic acid] gave an EC50 above 20000 nM. In “in vitro”, this molecule registered an IC50 above 20000 nM.

As to `CC(C)[C@H](NC(=O)c1ccc(O[C@H]2O[C@@H]3O[C@@]4(C)CC[C@H]5[C@H](C)CC[C@@H]([C@H]2C)[C@@]35OO4)cc1)C(=O)O` [Compound 236, (4-(((3R,5aS,6R,8aS, 9R,10S,12R, 12aR)-3,6,9-trimethyldeca-hydro-12H-3,12-epoxy[1,2]dioxepino[4,3-i]isochromen-10-yl)oxy)benzoyl)-L-valine], the EC50 in the data set with HL-60 is 47.4 nM. In the data set “in vitro”, this molecule showed an IC50 of 9100 nM.

`C[C@H]1[C@@H](OCc2ccc(N3C(=O)N(CC(=O)O)C(C)(C)C3=O)cc2)O[C@@H]2O[C@@]3(C)CC[C@H]4[C@H](C)CC[C@@H]1[C@@]24OO3` [Compound 296, 2-(5,5-dimethyl-2,4-dioxo-3-(4-((((3R,5aS,6R,8aS, 9R,10S,12R, 12aR)-3,6,9-trimethyldeca-hydro-12H-3,12-epoxy[1,2]dioxepino[4,3-i]isochromen-10-yl)oxy)methyl)phenyl)imidazolidin-1-yl)acetic acid] gave an EC50 with HL-60 of 2910 nM. Further, the IC50 in the data set “in vitro” is above 20000 nM.

`C[C@H]1[C@@H](O[C@H]2CC[C@@H](C(=O)N[C@H](C(=O)O)C(C)(C)O)CC2)O[C@@H]2O[C@@]3(C)CC[C@H]4[C@H](C)CC[C@@H]1[C@@]24OO3` [Compound 249, (S)-3-hydroxy-3-methyl-2-((1R,4R)-4-(((3R,5aS,6R,8aS, 9R,10S,12R, 12aR)-3,6,9-trimethyldeca-hydro-12H-3,12-epoxy[1,2]dioxepino[4,3-i]isochromen-10-yl)oxy)cyclo-hexane-1-carboxamido) butanoic acid] yielded an EC50 in the data set on HL-60 of 20000 nM. In “in vitro”, this molecule returned an IC50 above 20000 nM.

`C[C@H]1[C@@H](O[C@H]2CC[C@@H](C(=O)NC3(C(=O)O)CC3)CC2)O[C@@H]2O[C@@]3(C)CC[C@H]4[C@H](C)CC[C@@H]1[C@@]24OO3` [Compound 262, 1-((1R,4s)-4-(((3R,5aS,6R,8aS, 9R,10S,12R, 12aR)-3,6,9-trimethyldeca-hydro-12H-3,12-epoxy[1,2]dioxepino[4,3-i]isochromen-10-yl)oxy)cyclohexane-1-carboxamido) cyclopropane-1-carboxylic acid]: in the data set on HL-60, the half-maximal effective concentration (EC50) was 11400 nM. Further, the IC50 in “in vitro” was above 20000 nM.

Take `C[C@H]1[C@H](OCc2c(Cl)cc(C(=O)O)cc2S(C)(=O)=O)O[C@@H]2O[C@@]3(C)CC[C@H]4[C@H](C)CC[C@@H]1[C@@]24OO3` [Compound 217, 3-chloro-5-(methylsulfonyl)-4-((((3R,5aS,6R,8aS, 9R,10R,12R, 12aR)-3,6,9-trimethyldeca-hydro-12H-3,12-epoxy[1,2]dioxepino[4,3-i]isochromen-10-yl)oxy)methyl) benzoic acid]: the EC50 in the data set with HL-60 was 53.1 nM. In “in vitro”, this molecule gave an IC50 of 3000 nM.

In the data set with HL-60, `C[C@H]1[C@@H](Oc2ccc3cc(C(=O)O)ccc3c2)O[C@@H]2O[C@@]3(C)CC[C@H]4[C@H](C)CC[C@@H]1[C@@]24OO3` [Compound 214, 6-(((3R,5aS,6R,8aS, 9R,10S,12R, 12aR)-3,6,9-trimethyldeca-hydro-12H-3,12-epoxy[1,2]dioxepino[4,3-i]isochromen-10-yl)oxy)-2-naphthoic acid] displayed an EC50 of 53.7 nM. The molecule further had a half-maximal inhibitory concentration (IC50) in “in vitro” of 220 nM.

On to `C[C@H]1[C@@H](OC/C=C/[C@@H]2CCC[C@H](C(=O)O)C2)O[C@@H]2O[C@@]3(C)CC[C@H]4[C@H](C)CC[C@@H]1[C@@]24OO3` [Compound 269, (1S,3R)-3-((E)-3-(((3R,5aS,6R,8aS, 9R,10S,12R, 12aR)-3,6,9-trimethyldeca-hydro-12H-3,12-epoxy[1,2]dioxepino[4,3-i]isochromen-10-yl)oxy)prop-1-en-1-yl) cyclohexane-1-carboxylic acid], for which the EC50 in the data set with HL-60 was 143 nM. Further, the IC50 in “in vitro” came out at 7330 nM.

In the data set with HL-60, `C[C@H]1[C@@H](Oc2ccc(CC(=O)N[C@@H]3C[C@H](C(=O)O)C[C@H]3O)cc2)O[C@@H]2O[C@@]3(C)CC[C@H]4[C@H](C)CC[C@@H]1[C@@]24OO3` [Compound 299, (1S,3R,4R)-3-hydroxy-4-(2-(4-(((3R,5aS,6R,8aS, 9R,10S,12R, 12aR)-3,6,9-trimethyldeca-hydro-12H-3,12-epoxy[1,2]dioxepino[4,3-i]isochromen-10-yl)oxy)phenyl)acetamido) cyclopentane-1-carboxylic acid] returned an EC50 of 108 nM. The same molecule displayed an IC50 in “in vitro” of 4990 nM.

Take `C[C@H]1[C@@H](Oc2ccc(OC3(C(=O)O)CC3)cc2)O[C@@H]2O[C@@]3(C)CC[C@H]4[C@H](C)CC[C@@H]1[C@@]24OO3` [Compound 268, 1-(4-(((3R,5aS,6R,8aS, 9R,10S,12R, 12aR)-3,6,9-trimethyldeca-hydro-12H-3,12-epoxy[1,2]dioxepino[4,3-i]isochromen-10-yl)oxy)phenoxy) cyclopropane-1-carboxylic acid]: in the data set on HL-60, it took 48.9 nM to reach a half-maximal effect (EC50). In “in vitro”, this molecule had an IC50 of 4280 nM.

`C[C@H]1[C@@H](Oc2ccc(OCC(=O)O)cc2Cl)O[C@@H]2O[C@@]3(C)CC[C@H]4[C@H](C)CC[C@@H]1[C@@]24OO3` [Compound 218, 2-(3-chloro-4-(((3R,5aS,6R,8aS, 9R,10S,12R, 12aR)-3,6,9-trimethyldeca-hydro-12H-3,12-epoxy[1,2]dioxepino[4,3-i]isochromen-10-yl)oxy)phenoxy) acetic acid] returned an EC50 in the data set on HL-60 of 101 nM. The IC50 in “in vitro” is 690 nM.

Regarding `C[C@H]1[C@@H](OCc2ccc(C(=O)NCC3(C(=O)O)CCC3)cc2)O[C@@H]2O[C@@]3(C)CC[C@H]4[C@H](C)CC[C@@H]1[C@@]24OO3` [Compound 286, 1-((4-((((3R,5aS,6R,8aS, 9R,10S,12R, 12aR)-3,6,9-trimethyldeca-hydro-12H-3,12-epoxy[1,2]dioxepino[4,3-i]isochromen-10-yl)oxy)methyl)benzamido)methyl) cyclobutane-1-carboxylic acid], the EC50 with HL-60 is 18 nM. Further, in the data set “in vitro”, half-maximal inhibition (IC50) was put at 1530 nM.

Regarding `C[C@H]1[C@@H](Oc2ccc(CC(=O)N[C@H]3C[C@@H](C(=O)O)C3)cc2)O[C@@H]2O[C@@]3(C)CC[C@H]4[C@H](C)CC[C@@H]1[C@@]24OO3` [Compound 292, (1R,3s)-3-(2-(4-(((3R,5aS,6R,8aS, 9R,10S,12R, 12aR)-3,6,9-trimethyldeca-hydro-12H-3,12-epoxy[1,2]dioxepino[4,3-i]isochromen-10-yl)oxy)phenyl)acetamido) cyclobutane-1-carboxylic acid], the EC50 in the data set on HL-60 stood at 42.9 nM. The same molecule came in with an IC50 in the data set “in vitro” (HL-60 cells) above 20000 nM.

Consider `C[C@H]1[C@@H](Oc2ccc(OCCC(=O)O)cc2)O[C@@H]2O[C@@]3(C)CC[C@H]4[C@H](C)CC[C@@H]1[C@@]24OO3` [Compound 250, 3-(4-(((3R,5aS,6R,8aS, 9R,10S,12R, 12aR)-3,6,9-trimethyldeca-hydro-12H-3,12-epoxy[1,2]dioxepino[4,3-i]isochromen-10-yl)oxy)phenoxy) propanoic acid], for which the EC50 with HL-60 came out at 88.2 nM. The molecule also gave an IC50 in “in vitro” of 17600 nM.

Take `C[C@H]1[C@@H](Oc2ccc(C(C)(C)C(=O)O)cc2F)O[C@@H]2O[C@@]3(C)CC[C@H]4[C@H](C)CC[C@@H]1[C@@]24OO3` [Compound 270, 2-(3-fluoro-4-(((3R,5aS,6R,8aS, 9R,10S,12R, 12aR)-3,6,9-trimethyldeca-hydro-12H-3,12-epoxy[1,2]dioxepino[4,3-i]isochromen-10-yl)oxy)phenyl)-2-methyl-propanoic acid]: in the data set on HL-60, the EC50 came to 28.6 nM. This molecule displayed an IC50 in “in vitro” of 700 nM.

In turn, `C[C@H]1[C@@H](Oc2ccc(C(=O)N(C)[C@H]3CC[C@@H](C(=O)O)C3)cc2)O[C@@H]2O[C@@]3(C)CC[C@H]4[C@H](C)CC[C@@H]1[C@@]24OO3` [Compound 272, (1R,3S)-3-(N-methyl-4-(((3R,5aS,6R,8aS, 9R,10S,12R, 12aR)-3,6,9-trimethyldeca-hydro-12H-3,12-epoxy[1,2]dioxepino[4,3-i]isochromen-10-yl)oxy)benzamido) cyclopentane-1-carboxylic acid] yielded an EC50 in the data set with HL-60 of 105 nM. The molecule also had an IC50 in the data set “in vitro” of 9270 nM.

In turn, `C[C@H]1[C@@H](OCc2ccc(C(=O)O)c(OC(F)(F)F)c2)O[C@@H]2O[C@@]3(C)CC[C@H]4[C@H](C)CC[C@@H]1[C@@]24OO3` [Compound 298, 2-(trifluoro-methoxy)-4-((((3R,5aS,6R,8aS, 9R,10S,12R, 12aR)-3,6,9-trimethyldeca-hydro-12H-3,12-epoxy[1,2]dioxepino[4,3-i]isochromen-10-yl)oxy)methyl) benzoic acid] yielded a concentration giving a half-maximal response (EC50) in the data set on HL-60 of 53.1 nM. In addition, the IC50 in “in vitro” is above 20000 nM.

`C[C@H]1[C@@H](OCc2c(F)cc(C(=O)N[C@H]3CC[C@@H](C(=O)O)C3)cc2F)O[C@@H]2O[C@@]3(C)CC[C@H]4[C@H](C)CC[C@@H]1[C@@]24OO3` [Compound 309, (1R,3S)-3-(3,5-difluoro-4-((((3R,5aS,6R,8aS, 9R,10S,12R, 12aR)-3,6,9-trimethyldeca-hydro-12H-3,12-epoxy[1,2]dioxepino[4,3-i]isochromen-10-yl)oxy)methyl)benzamido) cyclopentane-1-carboxylic acid] displayed an EC50 with HL-60 of 31.3 nM. In addition, the IC50 in “in vitro” worked out at 1740 nM.

In turn, `C[C@H]1[C@@H](OC[C@H]2CC[C@@H](C(=O)Nc3ccc(C(=O)O)cc3)CC2)O[C@@H]2O[C@@]3(C)CC[C@H]4[C@H](C)CC[C@@H]1[C@@]24OO3` [Compound 287, 4-((1R,4s)-4-((((3R,5aS,6R,8aS, 9R,10S,12R, 12aR)-3,6,9-trimethyldeca-hydro-12H-3,12-epoxy[1,2]dioxepino[4,3-i]isochromen-10-yl)oxy)methyl)cyclohexane-1-carboxamido) benzoic acid] yielded an EC50 with HL-60 of 60.8 nM. The molecule further gave an IC50 in “in vitro” of 1000 nM.

The values above are taken from patent publication US20260242391A1 (priority 2023, published 2026).
